Laboratory results published in ChEMBL document CHEMBL3351875, “Synthesis of Deuterated Benzopyran Derivatives as Selective COX-2 Inhibitors with Improved Pharmacokinetic Properties” (ACS Med Chem Lett, 2014).

Key:
[1] = Apparent oral clearance in Sprague-Dawley rat at 2.5 mg/kg, iv measured during 1 to 24 hrs by LC-MS method; type: ADME, organism-based; design: dose 2.5 mg/kg, route oral; details: in vivo
Rattus norvegicus [2] = experiment: Tmax in Sprague-Dawley rat at 5 mg/kg, po measured during 1 to 24 hrs by LC-MS method; type: ADME, organism-based; design: dose 5 mg/kg, route oral; details: in vivo
[3] = Cmax in Sprague-Dawley rat at 2.5 mg/kg, iv measured during 1 to 24 hrs by LC-MS method; type: ADME, organism-based; design: dose 2.5 mg/kg, route intravenous; details: in vivo
Rattus norvegicus [4] = experiment: AUC (0 to infinity) in Sprague-Dawley rat at 5 mg/kg, po measured during 1 to 24 hrs by LC-MS method; type: ADME, organism-based, Plasma; design: time infinity, dose 5 mg/kg, route oral; details: in vivo
Rattus norvegicus [5] = experiment: Half life in Sprague-Dawley rat at 2.5 mg/kg, iv measured during 1 to 24 hrs by LC-MS method; type: ADME, organism-based; design: dose 2.5 mg/kg, route intravenous; details: in vivo
[6] = Apparent oral clearance in Sprague-Dawley rat at 5 mg/kg, po measured during 1 to 24 hrs by LC-MS method; type: ADME, organism-based; design: dose 5 mg/kg, route oral; details: in vivo
Rattus norvegicus [7] = experiment: Antiinflammatory activity in orally dosed Sprague-Dawley rat model of carrageenan-induced foot paw edema assessed as reduction in edema by plethysmometry; type: functional, organism-based
[8] = Oral bioavailability in Sprague-Dawley rat at 5 mg/kg measured during 1 to 24 hrs by LC-MS method; type: ADME, organism-based; details: in vivo
Rattus norvegicus [9] = experiment: Volume of distribution in Sprague-Dawley rat at 5 mg/kg, po measured during 1 to 24 hrs by LC-MS method; type: ADME, organism-based; design: dose 5 mg/kg, route oral; details: in vivo
Rattus norvegicus [10] = experiment: Antiinflammatory activity in orally dosed Sprague-Dawley rat model of carrageenan-induced air pouch inflammation assessed as reduction in PGE2 level by ELISA method; type: functional, organism-based
[11] = biological target: T1, Prostaglandin G/H synthase 2 (Homo sapiens, UniProt P35354); experiment: Inhibition of human recombinant COX2 pre-incubated for 15 mins before fluorometric substrate addition by fluorescence based assay
T1 sequence (P35354 whole entry): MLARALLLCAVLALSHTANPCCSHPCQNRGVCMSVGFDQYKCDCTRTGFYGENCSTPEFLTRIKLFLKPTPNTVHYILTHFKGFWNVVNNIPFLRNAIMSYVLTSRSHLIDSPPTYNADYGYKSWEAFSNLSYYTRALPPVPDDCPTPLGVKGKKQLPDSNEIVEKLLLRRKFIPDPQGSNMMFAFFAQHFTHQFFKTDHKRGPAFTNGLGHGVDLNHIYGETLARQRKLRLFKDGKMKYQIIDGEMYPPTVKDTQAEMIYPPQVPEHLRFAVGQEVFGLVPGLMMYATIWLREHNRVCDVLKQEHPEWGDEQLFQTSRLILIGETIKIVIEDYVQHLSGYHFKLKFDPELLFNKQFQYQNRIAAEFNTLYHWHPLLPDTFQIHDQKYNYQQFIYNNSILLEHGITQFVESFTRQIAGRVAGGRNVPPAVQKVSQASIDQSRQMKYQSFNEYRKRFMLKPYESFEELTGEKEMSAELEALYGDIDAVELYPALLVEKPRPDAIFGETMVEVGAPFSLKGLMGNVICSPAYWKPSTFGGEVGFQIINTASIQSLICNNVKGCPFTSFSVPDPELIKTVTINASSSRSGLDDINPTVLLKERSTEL

[12] = Volume of distribution in Sprague-Dawley rat at 2.5 mg/kg, iv measured during 1 to 24 hrs by LC-MS method; type: ADME, organism-based; design: dose 2.5 mg/kg, route intravenous; details: in vivo
Rattus norvegicus [13] = experiment: Antiarthritic activity in Lewis rat model of adjuvant-induced arthritis administrated by oral gavage once daily; type: functional; details: tested as the 2H-labelled form
[14] = Cmax in Sprague-Dawley rat at 5 mg/kg, po measured during 1 to 24 hrs by LC-MS method; type: ADME, organism-based; design: dose 5 mg/kg, route oral; details: in vivo
Rattus norvegicus [15] = experiment: AUC (0 to infinity) in Sprague-Dawley rat at 2.5 mg/kg, iv measured during 1 to 24 hrs by LC-MS method; type: ADME, organism-based, Plasma; design: time infinity, dose 2.5 mg/kg, route intravenous; details: in vivo
Rattus norvegicus [16] = experiment: Half life in Sprague-Dawley rat at 5 mg/kg, po measured during 1 to 24 hrs by LC-MS method; type: ADME, organism-based; design: dose 5 mg/kg, route oral; details: in vivo
Rattus norvegicus [17] = experiment: Antinociceptive activity in orally dosed Sprague-Dawley rat model of carrageenan-induced foot paw hyperalgesia assessed as paw withdrawal latency; type: functional, organism-based
[18] = biological target: Prostaglandin G/H synthase 1 (Homo sapiens, UniProt P23219); experiment: Inhibition of human recombinant COX1 pre-incubated for 15 mins before fluorometric substrate addition by fluorescence based assay
Chain of Prostaglandin G/H synthase 1 (P23219 whole entry): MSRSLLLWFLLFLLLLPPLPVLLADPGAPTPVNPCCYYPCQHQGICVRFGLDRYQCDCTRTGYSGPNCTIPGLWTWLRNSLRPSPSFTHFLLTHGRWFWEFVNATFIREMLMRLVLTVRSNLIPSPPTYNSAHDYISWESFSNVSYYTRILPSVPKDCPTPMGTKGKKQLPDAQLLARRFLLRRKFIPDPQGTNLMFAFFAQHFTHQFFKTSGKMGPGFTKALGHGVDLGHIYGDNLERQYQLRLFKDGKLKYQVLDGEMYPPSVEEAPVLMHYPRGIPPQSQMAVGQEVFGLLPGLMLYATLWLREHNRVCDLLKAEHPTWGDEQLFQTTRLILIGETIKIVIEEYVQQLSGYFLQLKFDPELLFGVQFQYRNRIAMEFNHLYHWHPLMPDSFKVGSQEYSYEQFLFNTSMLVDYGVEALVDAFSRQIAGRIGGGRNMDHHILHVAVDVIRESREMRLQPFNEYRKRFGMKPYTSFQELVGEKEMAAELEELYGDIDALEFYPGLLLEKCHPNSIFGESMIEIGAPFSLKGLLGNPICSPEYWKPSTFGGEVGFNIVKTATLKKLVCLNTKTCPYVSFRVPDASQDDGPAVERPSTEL

Rattus norvegicus [19] = experiment: Volume of distribution in Sprague-Dawley rat at 30 mg/kg, po measured during 1 to 24 hrs by LC-MS method; type: ADME, organism-based; design: dose 30 mg/kg, route oral; details: in vivo
Rattus norvegicus [20] = experiment: Half life in Sprague-Dawley rat at 10 mg/kg, iv measured during 1 to 24 hrs by LC-MS method; type: ADME, organism-based; design: dose 10 mg/kg, route intravenous; details: in vivo
[21] = Oral bioavailability in Sprague-Dawley rat at 30 mg/kg measured during 1 to 24 hrs by LC-MS method; type: ADME, organism-based; details: in vivo
[22] = Cmax in Sprague-Dawley rat at 10 mg/kg, iv measured during 1 to 24 hrs by LC-MS method; type: ADME, organism-based; design: dose 10 mg/kg, route intravenous; details: in vivo
[23] = AUC (0 to infinity) in Sprague-Dawley rat at 30 mg/kg, po measured during 1 to 24 hrs by LC-MS method; type: ADME, organism-based; design: time infinity, dose 30 mg/kg, route oral; details: plasma
[24] = Cmax in Sprague-Dawley rat at 30 mg/kg, po measured during 1 to 24 hrs by LC-MS method; type: ADME, organism-based; design: dose 30 mg/kg, route oral; details: in vivo
[25] = Apparent oral clearance in Sprague-Dawley rat at 10 mg/kg, iv measured during 1 to 24 hrs by LC-MS method; type: ADME, organism-based; design: dose 10 mg/kg, route oral; details: in vivo
[26] = Apparent oral clearance in Sprague-Dawley rat at 30 mg/kg, po measured during 1 to 24 hrs by LC-MS method; type: ADME, organism-based; design: dose 30 mg/kg, route oral; details: in vivo
[27] = Tmax in Sprague-Dawley rat at 30 mg/kg, po measured during 1 to 24 hrs by LC-MS method; type: ADME, organism-based; design: dose 30 mg/kg, route oral; details: in vivo
[28] = Half life in Sprague-Dawley rat at 30 mg/kg, po measured during 1 to 24 hrs by LC-MS method; type: ADME, organism-based; design: dose 30 mg/kg, route oral; details: in vivo
[29] = AUC (0 to infinity) in Sprague-Dawley rat at 10 mg/kg, iv measured during 1 to 24 hrs by LC-MS method; type: ADME, organism-based; design: time infinity, dose 10 mg/kg, route intravenous; details: plasma
[30] = Volume of distribution in Sprague-Dawley rat at 10 mg/kg, iv measured during 1 to 24 hrs by LC-MS method; type: ADME, organism-based; design: dose 10 mg/kg, route intravenous; details: in vivo

Question: Which CL/F [1] does the source give for `Cc1cc(Br)cc2c1OC(C(F)(F)F)C(C(=O)O)=C2` (stereo not given) here?
Answer: 0.172 L/h/kg

Question: What about the Tmax (Rattus norvegicus [2]) of the same compound?
Answer: 0.438 h

Question: And the Cmax [3]?
Answer: 38.6 µg/mL

Question: And the AUC (Rattus norvegicus [4])?
Answer: 17.19028 µg·h/mL

Question: What about the t1/2 (Rattus norvegicus [5]) of the same compound?
Answer: 0.58 h

Question: What about the CL/F [6] of the same compound?
Answer: 0.298 L/h/kg

Question: And the EC50 (Rattus norvegicus [7])?
Answer: 3.47 mg/kg

Question: And the bioavailability [8]?
Answer: 46.3%

Question: And the Vd (Rattus norvegicus [9])?
Answer: 0.65 L/kg

Question: What about the EC50 (Rattus norvegicus [10]) of the same compound?
Answer: 0.47 mg/kg

Question: And the IC50 [11]?
Answer: 0.028 µM

Question: And the Vd [12]?
Answer: 0.15 L/kg

Question: And the inhibition (Rattus norvegicus [13])?
Answer: Dose-dependent effect

Question: And the Cmax [14]?
Answer: 11.5 µg/mL

Question: And the AUC (Rattus norvegicus [15])?
Answer: 14.843535 µg·h/mL

Question: And the t1/2 (Rattus norvegicus [16])?
Answer: 1.51 h

Question: And the EC50 (Rattus norvegicus [17])?
Answer: 3.52 mg/kg

Question: What about the IC50 [18] of the same compound?
Answer: > 100 µM

Question: What does the source list for `[2H]C([2H])([2H])C([2H])([2H])c1cc(OC(F)(F)F)cc2c1OC(C(F)(F)F)C(C(=O)O)=C2` (stereo not given)?
Answer: Vd (Rattus norvegicus [19]): 0.491 L/kg; t1/2 (Rattus norvegicus [20]): 5.946 h; bioavailability [21]: 60.2%; Cmax [22]: 51.6 µg/mL; AUC(0-inf) [23]: 403 µg·h/mL; Cmax [24]: 33.5 µg/mL; CL/F [25]: 0.047 L/h/kg; CL/F [26]: 0.075 L/h/kg; Tmax [27]: 1.25 h; half-life [28]: 4.54 h; AUC(0-inf) [29]: 223 µg·h/mL; Vd [30]: 0.39 L/kg
